The source of these data is patent US5342922A, “Inhibitors of retroviral protease” (Washington University, priority 1989, dated 1994).

Like-named read-outs stand apart in the source and are kept apart here. Numbered stars: 1 amine (or outer) side, 2 acyl side, 3 side chain; on linkers, the order of the positions; unused ones are H or OH. Square brackets hold non-standard residues; d marks the D form. Peptide text beside a SMILES is read from it. LeuΨ(CH2N)Pro = CC(C)C[C@@H](CN1CCC[C@H]1C(=O)[*:2])N[*:1]; X1 = O=C([C@@H]1CCCN1C[C@H](Cc1ccc(O)cc1)N[*:1])[*:2]; X2 = O=C([C@@H]1CCCN1C[C@H](Cc1ccccc1)N[*:1])[*:2]; X3 = CCCC[C@@H](CN(C)[C@@H](CCCC)C(=O)[*:2])N[*:1]; X4 = C[C@@H](CN1CCC[C@H]1C(=O)[*:2])N[*:1]

Data set [1] deals with T1, HIV protease (Human immunodeficiency virus type 1 group M subtype B, UniProt P04585). The data set is described as follows: HIV protease assay, inhibition of cleavage of acetyl-Thr-Ile-Met-Met-Gln-Arg-NH2 (HPLC). In kind it is biochemical, HIV-1.
For data set [2], the target named is T1, HIV protease. Particulars: Darke et al. 1988, cited from earlier work.
The target in data set [3] is T1, HIV protease. The data set is described as follows: HIV protease assay, substrate cleavage (relative hydrolysis rates, Km, Vmax). In kind it is biochemical, HIV-1. Particulars: for Relative Rate: percent of standard substrate concentration cleaved in twenty minutes, relative to Ac-Thr-Ile-Met-Met-Gln-Arg-NH2 = 1.00.
Data set [4] deals with CD4+ human lymphocyte cells (H9 cells). Particulars: preliminary.
[5] abbreviates: affinities not fully characterized, classified by comparative inhibition studies, read-out: KI (affinity category).
Where [6] appears, read: in vitro inhibition of HIV protease, pH 6.5, 25°, read-out: KI.

As to `CCCC[C@@H](CN[C@@H](CCCC)C(=O)N[C@@H](CCC(N)=O)C(=O)N[C@H](CCCNC(=N)N)C(N)=O)NC(=O)[C@@H](NC(=O)[C@@H](NC(C)=O)[C@@H](C)O)[C@@H](C)CC` [Ac--Thr--Ile--Nle-.PSI.[CH2 NH]--Nle--Gln--D--Arg--NH2], the Ki (in general, a measure of affinity in units of concentration, obtained from inhibition or displacement) on HIV protease [1] (setting [5]) lay within 1 to 100 µM.
For the molecule `CCCC[C@@H](CN[C@@H](CCCC)C(=O)N[C@@H](CCC(N)=O)C(=O)N[C@@H](CCCNC(=N)N)C(N)=O)NC(=O)[C@@H](NC(=O)[C@H](NC(C)=O)[C@H](C)O)[C@@H](C)CC` [Ac--D--Thr--Ile--Nle-.PSI.[CH2 NH]--Nle--Gln--Arg--NH2], the Ki on HIV protease [1] (setting [5]) was 1 to 100 µM.
`CC(C)C[C@@H](CN1CCC[C@H]1C(=O)N[C@H](C(=O)N[C@@H](C)C(=O)O)C(C)C)NC(=O)[C@H](CC(N)=O)NC(=O)[C@H](CC(C)C)NC(=O)[C@@H](N)CO` [H2 N--Ser--Leu--Asn--Leu-.PSI.[CH2 N]--Pro--Val--Ala--OH] (H-SLN[LeuΨ(CH2N)Pro]VA-OH): at HIV protease [1] (setting [6]), the inhibition constant Ki amounted to 13.1 µM.
In the case of `CC[C@H](C)[C@H](NC(=O)[C@@H]1CCCN1C[C@H](Cc1ccccc1)NC(=O)[C@H](CC(N)=O)NC(=O)[C@H](CC(C)C)NC(C)=O)C(=O)N[C@@H](CO)C(=O)O` [Ac--Leu--Asn--Phe-.psi.[CH2 N]--Pro--Ile--Ser--OH] (Ac-LN[X2]IS-OH), on HIV protease [1] (setting [5]), the Ki is 1 to 100 µM.
VSQNYPIV: at HIV protease [2], the Km – broadly, the concentration of substrate that gives half-maximal velocity – was 2500 µM.
For the molecule Ac--Thr--Ile--Nle--Hle--Gln--Arg--NH2, the “Relative Rate” value at HIV protease [3] stood at 0.95.
Turning to `CCCC[C@@H](CNC1(C(=O)N[C@@H](CCC(N)=O)C(=O)N[C@@H](CCCNC(=N)N)C(N)=O)CCCC1)NC(=O)[C@@H](NC(=O)[C@@H](NC(C)=O)[C@@H](C)O)[C@@H](C)CC` [Ac--Thr--lle--Nle-.PSI.[CH2 NH]--Cle--Gln--Arg--NH2], at HIV protease [1] (setting [5]), the Ki is over 100 µM.
Still for that read-out and setting: as for `CC[C@H](C)[C@H](NC(=O)[C@@H]1CCCN1C[C@H](Cc1ccccc1)NC(=O)[C@H](CC(N)=O)NC(=O)[C@H](CC(C)C)NC(=O)[C@@H](N)[C@@H](C)O)C(=O)N[C@@H](CO)C(=O)O` [H2 N--Thr--Leu--Asn--Phe-.PSI.[CH2 N]--Pro--Ile--Ser--OH] (H-TLN[X2]IS-OH), the figure is 1 to 100 µM.
Same read-out and setting: then `CC[C@H](C)[C@H](NC(=O)[C@H](CCC(N)=O)NC(=O)[C@@H]1CCCN1C[C@H](Cc1ccccc1)NC(=O)[C@H](CC(N)=O)NC(=O)[C@H](Cc1ccccc1)NC(=O)[C@H](CO)NC(C)=O)C(N)=O` [Ac--Ser--Phe--Asn--Phe-.PSI.[CH2 N]--Pro--Gln--Ile--NH2] (Ac-SFN[X2]QI-NH2), with 1 to 100 µM; and `CCCC[C@@H](CN[C@H](C(=O)N[C@@H](CCC(N)=O)C(=O)N[C@@H](CCCNC(=N)N)C(N)=O)[C@@H](C)CC)NC(=O)[C@@H](NC(=O)[C@@H](NC(C)=O)[C@@H](C)O)[C@@H](C)CC` [Ac--Thr--Ile--Nle-.PSI.[CH2 NH]--Ile--Gln--Arg--NH2], with under 1 µM.
Turning to `CC[C@H](C)[C@H](NC(=O)[C@@H](NC(C)=O)[C@@H](C)O)C(=O)N[C@H](CN[C@@H](CC(C)C)C(=O)N[C@@H](CCC(N)=O)C(=O)N[C@@H](CCCNC(=N)N)C(N)=O)CC(C)C` [Ac--Thr--lle--Leu-.PSI.[CH2 NH]--Leu--Gln--Arg--NH2], the Ki on HIV protease [1] (setting [6]) came out at 0.734 µM.
Take SQNY-PIV: the “cleavage rate relative to the octapeptide” value at HIV protease [2] (of the rate of VSQNYPIV) is recorded as 90%.
On to `CCCC[C@@H](CN[C@@H](CC(C)C)C(=O)N[C@@H](CCC(N)=O)C(=O)N[C@@H](CCCNC(=N)N)C(N)=O)NC(=O)[C@@H](NC(=O)[C@@H](NC(C)=O)[C@@H](C)O)[C@@H](C)CC` [Ac--Thr--lle--Nle-.PSI.[CH2 NH]--Leu--Gln--Arg--NH2], for which the Ki on HIV protease [1] (setting [5]) is under 1 µM.
QNY-PIV: the “cleavage by HIV protease” value on HIV protease [2] is “failed to be cleaved”.
On to `CC[C@H](C)[C@H](NC(=O)[C@@H]1CCCN1C[C@H](Cc1ccc(O)cc1)NC(=O)[C@H](CC(N)=O)NC(=O)[C@H](CCC(N)=O)NC(C)=O)C(=O)N[C@H](C(N)=O)C(C)C` [Ac--Gln--Asn--Tyr-.PSI.[CH2 N]--Pro--Ile--Val--NH2] (Ac-QN[X1]IV-NH2), for which the “toxicity as measured by cell count” value in data set [4] is on record as “no apparent toxicity”. For the same molecule, the Ki on HIV protease [1] (setting [6]) turned out to be 17.2 µM.
For `CC(=O)NCC(=O)N[C@@H](CC(N)=O)C(=O)N[C@@H](Cc1ccc(O)cc1)CN1CCC[C@H]1C(=O)N[C@H](C(=O)N[C@@H](CCC(N)=O)C(N)=O)C(C)C` [Ac--Gly--Asn--Tyr-.PSI.[CH2 N]--Pro--Val--Gln--NH2] (Ac-GN[X1]VQ-NH2), the Ki on HIV protease [1] (setting [5]) was in the range of 1 to 100 µM.
Regarding `CC[C@H](C)[C@H](NC(=O)[C@H](CCC(N)=O)NC(=O)[C@@H]1CCCN1C[C@H](Cc1ccccc1)NC(=O)[C@H](CC(N)=O)NC(=O)[C@H](Cc1ccccc1)NC(C)=O)C(N)=O` [Ac--Phe--Asn--Phe-.PSI.[CH2 N]--Pro--Gln--Ile--NH2] (Ac-FN[X2]QI-NH2), at HIV protease [1] (setting [5]), the Ki was 1 to 100 µM.
For the molecule `CCCC[C@@H](CN[C@@H](CCCC)C(=O)N[C@@H](CCC(N)=O)C(=O)N[C@@H](CCC)C(N)=O)NC(=O)[C@@H](NC(=O)[C@@H](NC(C)=O)[C@@H](C)O)[C@@H](C)CC` [Ac--Thr--Ile--Nle-.PSI.[CH2 NH]--Nle--Gln--Nva--NH2], the Ki on HIV protease [1] (setting [5]) was 1 to 100 µM.
As for Aba--Thr--Ile--Nle--PnF--Gln--Arg--NH2, the “Relative Rate” value at HIV protease [3] was determined as 1.46.
Turning to `CCCC[C@@H](CN[C@@H](CC1CCCCC1)C(=O)N[C@@H](CCC(N)=O)C(=O)N[C@@H](CCCNC(=N)N)C(N)=O)NC(=O)[C@@H](NC(=O)[C@@H](NC(C)=O)[C@@H](C)O)[C@@H](C)CC` [Ac--Thr--Ile--Nle-.PSI.[CH2 NH]--Cha--Gln--Arg--NH2], at HIV protease [1] (setting [5]), the Ki is under 1 µM.
Consider “Ac-TIMMQR-NH2 [Ac--Thr--Ile--Met--Met--Gln--Arg--NH2]”, for which the “Relative Rate” value on HIV protease [3] was 1.00. Moreover, the maximal velocity (Vmax) (as a rule, the top rate of the reaction or transport when substrate is in excess) on HIV protease [3] (substrate of HIV protease) stood at 725 nmol/min/mg.
Turning to “Ac-QNYPIV-NH2 [Ac--Gln--Asn--Tyr--Pro--Ile--Val--NH2]”, the “Relative Rate” value at HIV protease [3] was determined as 0.04.
Turning to `CCCC[C@@H](CN[C@@H](CCCC)C(=O)N[C@@H](CCC(N)=O)C(=O)N[C@@H](CCCNC(=N)N)C(N)=O)NC(=O)[C@@H](NC(=O)[C@@H](NC(C)=O)[C@@H](C)O)[C@@H](C)CC` [Ac--Thr--Ile--Nle-.PSI.[CH2 NH]--Nle--Gln--Arg--NH2], the “toxicity as measured by cell count” value in data set [4] is “no apparent toxicity”.
Consider `CC(=O)N[C@@H](CC(C)C)C(=O)N[C@@H](C)C(=O)N[C@@H](C)CN1CCC[C@H]1C(=O)N[C@@H](CCC(N)=O)C(=O)N[C@@H](Cc1ccccc1)C(N)=O` [Ac--Leu--Ala--Ala-.PSI.[CH2 N]--Pro--Gln--Phe--NH2] (Ac-LA[X4]QF-NH2), for which, on HIV protease [1] (setting [5]), the Ki was over 100 µM.
The same measure, in the same setting: then `CCCC[C@@H](CN[C@@H](Cc1ccccc1)C(=O)N[C@@H](CCC(N)=O)C(=O)N[C@@H](CCCNC(=N)N)C(N)=O)NC(=O)[C@@H](NC(=O)[C@@H](NC(C)=O)[C@@H](C)O)[C@@H](C)CC` [Ac--Thr--lle--Nle-.PSI.[CH2 NH]--Phe--Gln--Arg--NH2], with under 1 µM; and `CCCC[C@@H](CN[C@@H](CCCC)C(=O)N[C@@H](CCC(N)=O)C(N)=O)NC(=O)[C@@H](NC(=O)[C@@H](NC(C)=O)[C@@H](C)O)[C@@H](C)CC` [Ac--Thr--Ile--Nle-.PSI.[CH2 NH]--Nle--Gln--NH2], with 1 to 100 µM; and `CCCC[C@@H](CN[C@@H](CCCC)C(=O)N[C@H](C(=O)N[C@H](C(N)=O)[C@@H](C)O)[C@@H](C)CC)NC(=O)[C@H](CCC(N)=O)NC(=O)[C@H](CCCNC(=N)N)NC(C)=O` [Ac--Arg--Gln--Nle-.PSI.[CH2 NH]--Nle--Ile--Thr--NH2], with 1 to 100 µM.
As to SQNY-PI, the “cleavage by HIV protease” value at HIV protease [2] is recorded as “failed to be cleaved”.
On to acetyl-QNY-PIV, for which, on HIV protease [2], the “cleavage by HIV protease” value is reported as “failed to be cleaved”.
With `CCCC[C@@H](CN(C)[C@@H](CCCC)C(=O)N[C@@H](CCC(N)=O)C(=O)N[C@@H](CCCNC(=N)N)C(N)=O)NC(=O)[C@@H](NC(=O)[C@@H](NC(C)=O)[C@@H](C)O)[C@@H](C)CC` [Ac--Thr--Ile--Nle-.psi.[CH2 NH]--MeNle--Gln--Arg--NH2] (Ac-TI[X3]QR-NH2), on HIV protease [1] (setting [5]), the inhibition constant (Ki) is over 100 µM.
